Columns and labels:
Type in all cases: cell-based, human
[1] = tested on: VEGF A
[2] = tested on: VEGF B
[3] = tested on: VEGF C

Compound | VEGF A gene expression ratio treated/untreated (up) [1] | VEGF B gene expression ratio treated/untreated (up) [2] | VEGF C gene expression ratio treated/untreated (up) [3]
[Cl-].[Cl-].[Co+2] [CoCl2] | up 3.4 x | up 1.4 x | up 3.0 x
YGRKKRRQRRR-DLDLEMLA(Hyp)YIPMDDDFQL [ODD peptide] | up 3.2 x | up 1.4 x | up 4.4 x
